Data from US10537558B2 (Bantam Pharmaceutical, LLC, priority 2015, dated 2020).

Tested on: BJAB cells
Assay: BJAB cell proliferation (Cell Titer Glo)
Assay type: cell-based
Conditions: Homo sapiens, read-out: EC50
Procedure, shortened: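 BJAB cells exposed to serially diluted compounds (0.1% DMSO final) for about 72 h at 37 °C. Proliferation read by Cell Titer Glo luminescence as percent of untreated controls; EC50 from non-linear regression of dose-response data.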

| Compound | EC50 [µM] |
| --- | --- |
| Cc1cc(-c2c(C)nn(-c3nc(-c4ccc(Cl)c(Cl)c4)c(SC(C)C)s3)c2C(=O)O)cc(N2CCC2)n1 [Compound 101, 4-(2-(azetidin-1-yl)-6-methylpyridin-4-yl)-1-(4-(3,4-dichlorophenyl)-5-(isopropylthio)thiazol-2-yl)-3-methyl-1H-pyrazole-5-carboxylic acid] | 1 to 5 |
| Cc1cc(-c2c(C)nn(-c3nc(-c4ccc(Cl)c(Cl)c4)c(SC(C)C)s3)c2C(=O)O)cc(N2CCOCC2)n1 [Compound 102, 1-(4-(3,4-dichlorophenyl)-5-(isopropylthio)thiazol-2-yl)-3-methyl-4-(2-methyl-6-morpholinopyridin-4-yl)-1H-pyrazole-5-carboxylic Acid] | 5 to 10 |
| COc1cccc(-c2nc(-n3nc(C)c(Cc4ccccc4[N+](=O)[O-])c3C(=O)O)sc2SC(C)C)c1 [Compound 103, 1-(5-(isopropylthio)-4-(3-methoxyphenyl)thiazol-2-yl)-3-methyl-4-(2-nitrobenzyl)-1H-pyrazole-5-carboxylic Acid] | > 80 |
| Cc1nn(-c2nc(-c3ccc(Cl)c(Cl)c3)c(SCCC(C)C)s2)c(C(=O)O)c1Cc1ccccc1[N+](=O)[O-] [Compound 104, 1-(4-(3,4-dichlorophenyl)-5-(isopentylthio)thiazol-2-yl)-3-methyl-4-(2-nitrobenzyl)-1H-pyrazole-5-carboxylic acid] | 25 to 50 |
| COc1cccc(-c2nc(-n3nc(C)c(Cc4ccccc4NS(C)(=O)=O)c3C(=O)O)sc2SC(C)C)c1 [Compound 105, 1-(5-(isopropylthio)-4-(3-methoxyphenyl)thiazol-2-yl)-3-methyl-4-(2-(methylsulfonamido)benzyl)-1H-pyrazole-5-carboxylic acid] | > 80 |
| CCC(C)Sc1sc(-n2nc(C)c(Cc3ccccc3[N+](=O)[O-])c2C(=O)O)nc1-c1ccc(Cl)c(Cl)c1 (stereo not shown) [Compound 106, 1-(5-(sec-butylthio)-4-(3,4-dichlorophenyl)thiazol-2-yl)-3-methyl-4-(2-nitrobenzyl)-1H-pyrazole-5-carboxylic acid] | 10 to 25 |
| Cc1nn(-c2nc(-c3ccc(Cl)c(Cl)c3)c(SC(C)C)s2)c(C(=O)O)c1-c1ccc2cc[nH]c2c1 [Compound 107, 1-(4-(3,4-dichlorophenyl)-5-(isopropylthio)thiazol-2-yl)-4-(1H-indol-6-yl)-3-methyl-1H-pyrazole-5-carboxylic acid] | 25 to 50 |
| Cc1nn(-c2nc(-c3ccc(Cl)c(Cl)c3)c(SC(C)C)s2)c(C(=O)O)c1-c1cccc([N+](=O)[O-])c1 [Compound 108, 1-(4-(3,4-dichlorophenyl)-5-(isopropylthio)thiazol-2-yl)-3-methyl-4-(3-nitrophenyl)-1H-pyrazole-5-carboxylic Acid] | 5 to 10 |
| Cc1nn(-c2nc(-c3ccc(Cl)c(Cl)c3)c(SC(C)C)s2)c(C(=O)O)c1-c1cn[nH]c1 [Compound 109, 2-(4-(3,4-dichlorophenyl)-5-(isopropylthio)thiazol-2-yl)-5-methyl-4,4′-bi(2H-pyrazole)-3-carboxylic acid] | 25 to 50 |
| Cc1nn(-c2nc(-c3ccc(Cl)c(Cl)c3)c(SC(C)C)s2)c(C(=O)O)c1-c1c[nH]c2ccccc12 [Compound 110, 1-(4-(3,4-dichlorophenyl)-5-(isopropylthio)thiazol-2-yl)-4-(1H-indol-3-yl)-3-methyl-1H-pyrazole-5-carboxylic acid] | 10 to 25 |
| Cc1nn(-c2nc(-c3ccc(Cl)c(Cl)c3)c(SC(C)C)s2)c(C(=O)O)c1-c1ccccc1Cl [Compound 111, 4-(2-chlorophenyl)-1-(4-(3,4-dichlorophenyl)-5-(isopropylthio)thiazol-2-yl)-3-methyl-1H-pyrazole-5-carboxylic acid] | 10 to 25 |
| Cc1nn(-c2nc(-c3ccc(Cl)c(Cl)c3)c(SC(C)C)s2)c(C(=O)O)c1-c1cccc(Cl)c1 [Compound 112, 4-(3-chlorophenyl)-1-(4-(3,4-dichlorophenyl)-5-(isopropylthio)thiazol-2-yl)-3-methyl-1H-pyrazole-5-carboxylic Acid] | 1 to 5 |
| Cc1nn(-c2nc(-c3ccc(Cl)c(Cl)c3)c(SC(C)C)s2)c(C(=O)O)c1-c1ccc(Cl)cc1 [Compound 113, 4-(4-chlorophenyl)-1-(4-(3,4-dichlorophenyl)-5-(isopropylthio)thiazol-2-yl)-3-methyl-1H-pyrazole-5-carboxylic acid] | 10 to 25 |
| COc1ccccc1-c1c(C)nn(-c2nc(-c3ccc(Cl)c(Cl)c3)c(SC(C)C)s2)c1C(=O)O [Compound 114, 1-(4-(3,4-dichlorophenyl)-5-(isopropylthio)thiazol-2-yl)-4-(2-methoxyphenyl)-3-methyl-1H-pyrazole-5-carboxylic acid] | 10 to 25 |
| COc1cccc(-c2c(C)nn(-c3nc(-c4ccc(Cl)c(Cl)c4)c(SC(C)C)s3)c2C(=O)O)c1 [Compound 115, 1-(4-(3,4-dichlorophenyl)-5-(isopropylthio)thiazol-2-yl)-4-(3-methoxyphenyl)-3-methyl-1H-pyrazole-5-carboxylic Acid] | 1 to 5 |
| COc1ccc(-c2c(C)nn(-c3nc(-c4ccc(Cl)c(Cl)c4)c(SC(C)C)s3)c2C(=O)O)cc1 [Compound 116, 1-(4-(3,4-dichlorophenyl)-5-(isopropylthio)thiazol-2-yl)-4-(4-methoxyphenyl)-3-methyl-1H-pyrazole-5-carboxylic acid] | 10 to 25 |
| Cc1ccccc1-c1c(C)nn(-c2nc(-c3ccc(Cl)c(Cl)c3)c(SC(C)C)s2)c1C(=O)O [Compound 117, 1-(4-(3,4-dichlorophenyl)-5-(isopropylthio)thiazol-2-yl)-3-methyl-4-o-tolyl-1H-pyrazole-5-carboxylic acid] | 5 to 10 |
| Cc1cccc(-c2c(C)nn(-c3nc(-c4ccc(Cl)c(Cl)c4)c(SC(C)C)s3)c2C(=O)O)c1 [Compound 118, 1-(4-(3,4-dichlorophenyl)-5-(isopropylthio)thiazol-2-yl)-3-methyl-4-m-tolyl-1H-pyrazole-5-carboxylic Acid] | 1 to 5 |
| Cc1ccc(-c2c(C)nn(-c3nc(-c4ccc(Cl)c(Cl)c4)c(SC(C)C)s3)c2C(=O)O)cc1 [Compound 119, 1-(4-(3,4-dichlorophenyl)-5-(isopropylthio)thiazol-2-yl)-3-methyl-4-p-tolyl-1H-pyrazole-5-carboxylic acid] | 10 to 25 |
| CC(=O)Nc1ccc(-c2c(C)nn(-c3nc(-c4ccc(Cl)c(Cl)c4)c(SC(C)C)s3)c2C(=O)O)cc1 [Compound 120, 4-(4-acetamidophenyl)-1-(4-(3,4-dichlorophenyl)-5-(isopropylthio)thiazol-2-yl)-3-methyl-1H-pyrazole-5-carboxylic acid] | > 50 |
| Cc1nn(-c2nc(-c3ccc(Cl)c(Cl)c3)c(SC(C)C)s2)c(C(=O)O)c1Cc1ccccc1NS(C)(=O)=O [Compound 121, 1-(4-(3,4-dichlorophenyl)-5-(isopropylthio)thiazol-2-yl)-3-methyl-4-(2-(methylsulfonamido)benzyl)-1H-pyrazole-5-carboxylic acid] | > 50 |
| Cc1nn(-c2nc(-c3ccc(Cl)c(Cl)c3)c(SC(C)C)s2)c(C(=O)O)c1Cc1ccccc1NS(=O)(=O)N(C)C [Compound 122, 1-(4-(3,4-dichlorophenyl)-5-(isopropylthio)thiazol-2-yl)-4-(2-(N,N-dimethylsulfamoylamino)benzyl)-3-methyl-1H-pyrazole-5-carboxylic acid] | 10 to 25 |
